This note sets out measurements from PubChem BioAssay (NCI).

Assay in all cases: NCI-60 cell line screen, 48 h
Assay [1] has as its system UACC-257 melanoma.
Assay [2] deals with LOX IMVI melanoma.
Assay [3] relates to RPMI-8226 leukemia.
The test system of assay [4] is NCI-H23 lung.
Assay [5] relates to CCRF-CEM leukemia.
The test system of assay [6] is SK-MEL-2 melanoma.
Assay [7] has as its system SK-OV-3 ovarian.
Assay [8] deals with SNB-19 CNS.
Assay [9] concerns HL-60(TB) leukemia.
Assay [10] has as its system U251 CNS.

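A five-concentration, 48-hour dose response in 96-well plates underlies each endpoint, interpolated linearly between surrounding concentrations. GI50: concentration for 50% inhibition of growth. TGI is the concentration that stops growth completely.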 Where a SMILES comes first, the peptide text is derived from it. [ ]: non-standard residue; d: D form. 2Nal = N[CH](Cc1ccc2ccccc2c1)C(=O)O

Take `CCOC(=O)c1cc(-c2ccc(OC)c(OC)c2)[nH]c1N/N=C/c1c(Cl)cccc1Cl`: the GI50 in [1] was 13.2 µM; in assay [2], 3.6 µM; in assay [3], 3.31 µM; in assay [4], 2.97 µM; in assay [5], 2.22 µM; in assay [6], 7.28 µM. Also, the GI50 in assay [7] was 1.85 µM; in assay [8], 2.6 µM; in assay [9], 1.86 µM; in assay [10] it was 2.15 µM. For the same compound, the TGI in assay [1] was over 71.9 µM; in assay [2], 20.5 µM; in assay [3] it was over 37.5 µM; in assay [4], 14 µM; in assay [5], over 100 µM; in assay [6], 48.6 µM. For the same compound, the TGI in assay [7] was found to be 17.6 µM; in assay [8], 34.2 µM; in assay [9], 6.15 µM; in assay [10] it was 18.2 µM.

Turning to `CC(C)C(NC(=O)C(CCCCN)NC(=O)C(Cc1c[nH]c2ccccc12)NC(=O)C(Cc1ccc(O)cc1)NC(=O)C(CS)NC(=O)C(N)Cc1ccc2ccccc2c1)C(=O)NC(CS)C(=O)NC(C(N)=O)C(C)O` (configuration not stated) (H-[2Nal]CYWKVCT-NH2; configuration not given here), the GI50 in assay [1], in assay [3], in assay [4], in assay [5], in assay [6] and in assay [7] was over 100 µM each time. Also, the GI50 in assay [9] and in assay [10] was over 100 µM in each case. Further, the TGI is over 100 µM in assay [1]; over 12.5 µM in [2]; over 100 µM in assay [3]; over 100 µM in [4]; over 100 µM in [5]; over 100 µM in assay [6]. Moreover, the TGI in [7], in assay [8], in [9] and in [10] was over 100 µM throughout.

`COC(=O)C1=C(C(=O)OC)C2OC1c1cc3ccccc3cc12`: the TGI was 17.5 µM in [1]; 30.5 µM in [2]; 5.41 µM in assay [3]; 11.8 µM in assay [4]; over 100 µM in [5]; 29.5 µM in assay [6]. Further, the TGI in assay [7] came out at 33 µM; in assay [8] it was 33.5 µM; in assay [9] it was 2.22 µM; in assay [10], 32.7 µM.

In the case of `N#Cc1c(N)nc(N2CCSCC2)c(C#N)c1-c1ccc(O)cc1`, the GI50 in assay [1] was 21.9 µM; in [2], 15.2 µM; in assay [3], 17.3 µM; in assay [4], 17.4 µM; in assay [5], 26.4 µM; in assay [6] it was 51 µM. In addition, the GI50 in [7] was 24.5 µM; in [8], 27.9 µM; in [9], 17 µM; in [10], 15 µM. The TGI in assay [1] is 52.6 µM; in assay [2], 30.3 µM; in assay [3], 48.5 µM; in [4] it was 36 µM; in assay [5] it was over 100 µM; in assay [6], over 100 µM. For the same compound, the TGI was found to be 98.9 µM in assay [7], 98.9 µM in assay [8], 53.1 µM in assay [9] and 28.3 µM in [10].

`COc1cc2c(cc1OC)c1c(OC)c(OC)cc3c1c1c2sc(=S)n1CC3`: the TGI in [1], in assay [2], in [3], in assay [4], in assay [5] and in [6] was over 100 µM in each case. The TGI is over 100 µM in [7], over 100 µM in assay [8], 81.8 µM in [9] and over 100 µM in [10].

As to `CCN(CC)CC(C)(C)C(=O)/C=C/c1ccc(/C=C/C(=O)C(C)(C)CN(CC)CC)cc1`, the TGI in [1] turned out to be 4.26 µM; in [2], 1.04 µM; in [3], 0.46 µM; in assay [4], 4.73 µM; in assay [5], 0.31 µM; in assay [6] it was 3.32 µM. Further, the TGI in assay [7] is 4.08 µM; in assay [8] it was 4.21 µM; in [9] it was 0.22 µM; in assay [10], 1.57 µM.

Regarding `O=C(Nc1nc(-c2ccc(Cl)cc2)nc2c1sc(=S)n2-c1ccccc1)C(F)(F)F`, the GI50 is 10.7 µM in [1]; 2.43 µM in assay [2]; 8.37 µM in assay [3]; 5.45 µM in [4]; over 100 µM in assay [5]; 5.8 µM in [6]. The GI50 in assay [7] is 2.71 µM; in assay [8], 7.18 µM; in [9], over 100 µM; in assay [10], 3.23 µM. Moreover, the TGI in assay [1] was 60 µM; in assay [2] it was 6.46 µM; in [3], over 100 µM; in assay [4], 26.8 µM; in [5], over 100 µM; in assay [6], 22.7 µM. Besides, the TGI in assay [7] is 8.1 µM; in assay [8], 37.5 µM; in assay [9] it was over 100 µM; in assay [10], 9.87 µM.

Regarding `COc1ccc(/C=C2\CC(C)CC3C2=NN(c2ccccc2)C3c2ccc(OC)c(OC)c2)cc1OC` (configuration not stated), the GI50 in assay [1] was 7.94 µM; in assay [2], 2.19 µM; in assay [3], 3.38 µM; in assay [4] it was 4.49 µM; in assay [5], 4.02 µM; in assay [6] it was 8.8 µM. The GI50 in assay [7] was 9.29 µM; in [8], 7.39 µM; in assay [9] it was 2.76 µM; in assay [10] it was 3.92 µM. The TGI is over 100 µM in [1]; 4.8 µM in [2]; over 100 µM in assay [3]; 27.2 µM in assay [4]; over 100 µM in assay [5]; over 100 µM in [6]. The TGI in assay [7] is over 100 µM; in assay [8] it was over 100 µM; in assay [9] it was 8.7 µM; in assay [10] it was 15.3 µM.

On to `Cc1cc(NNC(=O)c2ccccc2O)nc(Nc2nc3ccccc3o2)n1`, for which the GI50 was 3.25 µM in assay [1]; 0.607 µM in assay [2]; 1.85 µM in assay [3]; 3.99 µM in assay [4]; 2.24 µM in [6]; 0.633 µM in assay [7]. Moreover, the GI50 in assay [8] was 1.86 µM; in assay [9] it was 1.13 µM; in assay [10] it was 0.628 µM. Also, the TGI came out at 11.5 µM in assay [1]; 4.41 µM in assay [2]; 13.9 µM in assay [3]; 37.8 µM in assay [4]; 11.8 µM in [5]; 13.3 µM in [6]. The TGI in assay [7] was found to be 2.22 µM; in assay [8] it was 21.3 µM; in assay [9], 6.99 µM; in assay [10], 13.4 µM.

Consider `O=C1[C@H](Cl)[C@H]2c3cc4ccccc4nc3Oc3ccccc3N12`, for which the TGI in assay [1] was over 100 µM; in assay [2] it was over 100 µM; in assay [3], 65.5 µM; in assay [4] it was over 100 µM; in assay [5] it was over 100 µM; in assay [6] it was over 100 µM. The TGI in assay [7], in assay [8], in [9] and in assay [10] was over 100 µM throughout.

On to `C=C1CCC2C3(C)COC(c4ccc(Cl)cc4)OC3CCC2(C)C1/C=C/C1=CCOC1=O` (configuration not stated), for which the GI50 in assay [1] was 4.63 µM; in [2], 0.985 µM; in assay [3] it was 0.602 µM; in assay [4], 3.19 µM; in [5], 1.56 µM; in assay [6], 17.9 µM. Besides, the GI50 in assay [7] was 16.7 µM; in assay [8], 15.9 µM; in assay [9] it was 17 µM; in assay [10] it was 5.68 µM. Besides, the TGI in [1] is over 100 µM; in assay [2], 17.6 µM; in assay [3] it was over 100 µM; in assay [4], over 100 µM; in assay [5] it was 12.6 µM; in [6] it was over 100 µM. Also, the TGI in [7] was 74.5 µM; in [8], 88.4 µM; in assay [9], over 100 µM; in assay [10], 46.2 µM.

Regarding `CC1CCc2c(c(CC3CC(=O)NC(=O)C3)nn2-c2ccccc2)C1` (configuration not stated), the TGI in [1], in assay [2], in assay [3], in [4], in assay [5] and in assay [6] was over 100 µM throughout. Further, the TGI in [7], in [8], in assay [9] and in assay [10] was over 100 µM throughout.

Consider `NNC(=S)Nc1cccc(Cl)c1`, for which the TGI in assay [1], in assay [2], in [3], in assay [4], in assay [5] and in assay [6] was over 100 µM in each case. Also, the TGI in assay [7], in assay [8], in assay [9] and in assay [10] was over 100 µM throughout.
